Results: ChEMBL document CHEMBL1135700, “Design, synthesis and activity of ascorbic acid prodrugs of nipecotic, kynurenic and diclophenamic acids, liable to increase neurotropic activity” (2002)

Tested on: Mus musculus
Test: Compound administered at a concentration of 0.75 mmol/kg intraperitoneally was evaluated for its effect on pentylenetetrazole induced convulsions in mice, measured as latency to convulsion

For `C1CCc2nnnn2CC1.O=C1O[C@H]([C@@H](O)COC(=O)C2CCCNC2)C(O)=C1O` (stereo partly specified), the Latency was 922 s.
